Patent publication US20210128639A1, “CELL PREPARATION FOR TREATING BRAIN TUMOR” (priority 2017, published 2021)

Tests used:
Assay type in all cases: cell-based, human
[1] = system: Tet-induction iPS cells expressing HSVtk; assay: Cell death of Tet-induction iPS cells expressing HSVtk on adding Dox and GCV to the medium; conditions: 1 μg/ml doxycycline (Dox) and 1 μg/ml GCV added to the medium
Excerpt: Human iPS cells were infected with the CSIV-HSV1tk-TRE-EF-KT lentiviral vector at an MOI of 2.5 to 10 and cultured. The clones were then sorted with the cell sorter to obtain an iPS cell line expressing hKO1 steadily and highly.

[2] = system: Tet-induction NS/PCs expressing HSVtk; assay: Cell death of Tet-induction NS/PCs expressing HSVtk on adding Dox and GCV to the medium; conditions: 1 μg/ml doxycycline (Dox) and 1 μg/ml GCV added to the medium
Excerpt: Tet-induced iPS cells expressing HSVtk were differentiation-induced into NS/PCs to obtain secondary and tertiary Tet-induced NS/PCs expressing HSVtk.

NS/PCs expressing HSVtk = assay: Cell death of NS/PCs expressing HSVtk on adding ganciclovir to the medium; conditions: 1 μg/ml ganciclovir (GCV) added to the medium
Excerpt: Secondary or tertiary NS/PCs differentiation-induced from human iPS cells were collected with the centrifuge and disassembled into single cells using TrypLE Select. The single cells were suspended in NS medium, inoculated into a low adhesive flask at a concentration of 1×10^5 cells/ml, infected with the CSIV-EF-HSV1tk-IRES2-hKO1 lentiviral vector at an MOI (multiplicity of infection) of 0.5 to 1, and cultured for 7 days with the medium replaced every 3 to 4 days. The obtained NS/PCs were infected with the CSIV-EF-HSV1tk-IRES2-hKO1 lentiviral vector at an MOI of 0.5 to 1 in the same way again to prepare therapeutic stem cells (TSCs), that is, NS/PCs expressing HSVtk.

Nc1nc(O)c2ncn(COC(CO)CO)c2n1 [GCV, ganciclovir]
cell death of Tet-induction iPS cells expressing HSVtk [1]: cell death of Tet-induction iPS cells expressing HSVtk was induced
cell death of Tet-induction NS/PCs expressing HSVtk [2]: cell death of these Tet-induction NS/PCs expressing HSVtk was also induced
cell death of NS/PCs expressing HSVtk (NS/PCs expressing HSVtk): cell death of the NS/PCs expressing HSVtk was induced
